Data from US20250163032A1, “NOVEL MOLECULES AS INHIBITORS OF DNA DAMAGE REPAIR PATHWAY” (VRise Therapeutics, Inc., priority 2023, published 2025).

Experiments:
USP1/UAF1 = USP1/UAF1 (Homo sapiens, UniProt O94782); assay: USP1/UAF 1 assay (ubiquitin-rhodamine110 fluorometric deubiquitinase assay); assay type: biochemical; conditions: 1 nM USP1/UAF1, 150 nM Ub-Rho; read-out: Biochemical assay IC50
NCI-H1792 = assay: Cell viability assay (MTT assay), NCI-H1792; assay type: cell-based; conditions: Homo sapiens, tested at 10 uM, 168 hours (Test-3)
Description: Test-3: Cell Viability Assay (MTT Assay):
Cell viability assay was carried out using 10% FBS supplemented media. Cells were seeded at desired density in 96 well plate and incubated in a humidified CO2 incubator. After 24 hours of plating, test compounds at desired concentration range were added to the plates and incubated in the CO2 incubator for 168 hours. Post 168 hrs treatment, 12.5 μL of MTT was added to all wells including DMSO control. MTT treated plates were incubated further for 3 hours and MTT crystals were dissolved using 125 μL of DMSO. Absorbance was read on a BIO-RAD iMark Microplate plate reader at a wavelength of 570 nm. Data was analysed and percent inhibition (IC50) due to the test compound compared to the control was calculated using GraphPad Prism.

[1] = Metabolic stability, mouse liver microsomes; assay type: in vitro ADME; conditions: pH 7.4, 1 μM test item, 1 mM NADPH, 60 minutes
Description: (§1) Test-8: Metabolic Stability
(§2) Metabolic stability studies were conducted using mouse, rat, and human liver microsomes. The protocol for the studies with mouse and human liver microsomes (Gibco-Thermo) is provided below.
(§3) In brief, 0.25 mg protein was preincubated in phosphate buffer (pH˜7.4) for 5 min at 37° C. and then added with 1 μM test item followed by addition of 1 mM NADPH (cof actor) and incubated further over a period 60 minutes in duplicate. The reaction mixture was terminated with acetonitrile containing an internal standard and centrifuged further to analyse the test item remaining in the supernatant by LC-MS/MS at different intervals. The percent parent compound remaining was calculated in comparison with similar samples terminated at 0 minutes.

[2] = Metabolic stability, human liver microsomes; assay type: in vitro ADME; conditions: pH 7.4, 1 μM test item, 1 mM NADPH, 60 minutes
Description: as §1, §2, §3

MD-MBA-436 = assay: Cell viability assay (CTG assay); assay type: cell-based, human; conditions: Homo sapiens, 7th day
Description: Test 5: Cell Viability Assay (CTG Assay):
Growth inhibition assays was carried out using […] supplemented media. Cells were seeded at a desired concentration of 1000-6,000 cells/well in a well plate with desired number of wells. Test compounds at a desired concentration range were added after 24 hours. Growth was assessed using the Cell Titer-Glo (CTG, Cell Signaling) for measuring reduction at 7th day after the addition of test compound chemiluminescence values were read by a plate reader. Data was be analysed and percent inhibition and/or IC50 for each test compound is calculated accordingly.

Chain of USP1/UAF1 (O94782 whole entry): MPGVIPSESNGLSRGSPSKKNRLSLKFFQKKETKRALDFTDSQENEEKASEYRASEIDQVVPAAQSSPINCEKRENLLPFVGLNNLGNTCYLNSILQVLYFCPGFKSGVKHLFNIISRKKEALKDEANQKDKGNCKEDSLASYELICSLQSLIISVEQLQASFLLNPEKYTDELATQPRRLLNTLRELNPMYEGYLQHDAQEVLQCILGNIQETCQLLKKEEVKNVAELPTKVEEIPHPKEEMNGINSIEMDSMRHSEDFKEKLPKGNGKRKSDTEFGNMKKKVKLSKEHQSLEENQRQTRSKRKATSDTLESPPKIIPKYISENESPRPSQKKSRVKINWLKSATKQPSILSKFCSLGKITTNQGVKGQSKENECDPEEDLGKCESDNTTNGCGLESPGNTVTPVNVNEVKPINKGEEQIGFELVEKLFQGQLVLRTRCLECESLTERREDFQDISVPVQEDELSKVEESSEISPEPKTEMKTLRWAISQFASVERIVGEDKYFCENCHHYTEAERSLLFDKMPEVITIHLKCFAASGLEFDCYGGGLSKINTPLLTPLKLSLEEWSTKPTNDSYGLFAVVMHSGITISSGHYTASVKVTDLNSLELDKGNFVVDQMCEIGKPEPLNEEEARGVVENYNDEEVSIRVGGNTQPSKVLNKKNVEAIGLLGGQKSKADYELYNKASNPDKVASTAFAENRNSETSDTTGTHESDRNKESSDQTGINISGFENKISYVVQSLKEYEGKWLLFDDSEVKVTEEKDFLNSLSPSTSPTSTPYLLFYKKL
Chain of USP1/UAF1 (Q8TAF3 whole entry partner): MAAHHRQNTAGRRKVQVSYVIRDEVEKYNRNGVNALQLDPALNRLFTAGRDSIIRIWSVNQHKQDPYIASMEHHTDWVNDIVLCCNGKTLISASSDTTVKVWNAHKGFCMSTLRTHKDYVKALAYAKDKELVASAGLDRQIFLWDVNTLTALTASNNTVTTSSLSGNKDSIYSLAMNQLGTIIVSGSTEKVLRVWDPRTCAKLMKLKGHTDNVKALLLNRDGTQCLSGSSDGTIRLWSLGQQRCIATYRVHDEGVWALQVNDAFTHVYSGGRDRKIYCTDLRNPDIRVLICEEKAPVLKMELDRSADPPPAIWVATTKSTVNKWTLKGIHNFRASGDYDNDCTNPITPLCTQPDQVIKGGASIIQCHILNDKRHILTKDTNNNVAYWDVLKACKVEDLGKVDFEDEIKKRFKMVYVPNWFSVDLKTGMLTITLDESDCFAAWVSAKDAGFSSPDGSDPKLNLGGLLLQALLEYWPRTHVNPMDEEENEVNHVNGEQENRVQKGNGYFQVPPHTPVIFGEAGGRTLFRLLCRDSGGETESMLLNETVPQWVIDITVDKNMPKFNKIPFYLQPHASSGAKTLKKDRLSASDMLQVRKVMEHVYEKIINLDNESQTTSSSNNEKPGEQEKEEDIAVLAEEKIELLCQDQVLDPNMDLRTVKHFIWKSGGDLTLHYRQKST

IC50 (USP1/UAF1) [nM]	half-life at 1 μM [1] [h]	half-life at 1 μM [2] [h]	Structure (SMILES)	inhibition at 10 µM (NCI-H1792) [%]	IC50 (MD-MBA-436) [nM]
< 50	≥ 0.5	≥ 5	COc1ncnc(C2CC2)c1-c1nc(NCc2ccc(-c3nc(C(F)(F)F)cn3C)cc2)c2cccn2n1 [Example 6, 2-(4-cyclopropyl-6-methoxypyrimidin-5-yl)-N-(4-(1-methyl-4-(trifluoromethyl)-1H-imidazol-2-yl)benzyl)pyrrolo[2,1-f][1,2,4]triazin-4-amine]	50 to 75	< 50
50 to 100	1.49	1.81	COc1ncnc(C2CC2)c1-c1nc2c(c(NCc3ccc(-c4nc(C(F)(F)F)cn4C)cc3)n1)CCC2 [Example 1, 2-(4-cyclopropyl-6-methoxypyrimidin-5-yl)-N-(4-(1-methyl-4-(trifluoromethyl)-1H-imidazol-2-yl)benzyl)-6,7-dihydro-5H-cyclopenta[d]pyrimidin-4-amine]	25 to 50	< 50
